Like-named read-outs stand apart in the source and are kept apart here.
Assays:
[1] = type: physicochemical; details: coated maize kernels in 200 ml water, 20°C, 50 rpm
[2] = Sw = solubility in water
[3] = type: physicochemical; details: sand column; 50 mm artificial rainfall in 48 hours; 5 g/kg a.i.
[4] = not given; remark: listed apart in the source
[5] = Time release of terbufos from coated maize seeds into buffer; type: physicochemical
[6] = Release of terbufos from coated corn cob granules into buffer; type: physicochemical
[7] = Solubility of terbufos in neat surfactants and PEGs, judged by eye
[8] = Solubility of terbufos in water with increasing concentration of surfactant or association polymer
corn rootworms = experiment: Field control of corn rootworms by insecticide/polymer combinations applied to the seed; type: in vivo, Diabrotica spp.; details: maize G 4733, 0-6 scale, 63 days after planting
[9] = Solubilization of terbufos in individual and combined surfactant solutions; details: for Terbufos Concentration (ppm) Individual Surfactant: maximum 100 ppm terbufos in solution

CCOP(=S)(OCC)Oc1nc(Cl)n(C(C)C)n1 [isazofos]
Solubility (ppm) (isazophos in H₂O): 62 ppm | Solubility (ppm) (isazophos, 1000 ppm A1, HLB ∼30): 84 ppm | Solubility (ppm) (isazophos, 1000 ppm A2, HLB ∼30): 58 ppm | Solubility (ppm) (isazophos, 1000 ppm A4, HLB ∼30): 180 ppm | Solubility (ppm) (isazophos, 1000 ppm A5, HLB ∼30): 11 ppm | Solubility (ppm) (isazophos, 1000 ppm AM1): 98 ppm | Solubility (ppm) (isazophos, 1000 ppm N3, HLB 13.4): 260 ppm | Solubility (ppm) (isazophos, 1000 ppm N9, HLB 22): 130 ppm | Solubility (ppm) (isazophos, 1000 ppm N11, HLB 29): 92 ppm | Solubility (ppm) (isazophos, 1000 ppm N18, HLB 17.3): 130 ppm | Solubility (ppm) (isazophos, 1000 ppm N24, HLB 15.0): 170 ppm | Released Active Substance in % After 4 Hours Association Polymer 17.1 [1]: 80.8% | Released Active Substance in % After 4 Hours Standard Polymer 18.1 [1]: 63.5% | Sw in ppm [2]: 150 ppm | % a.i. Analyzed in "Traditional" Coats Kernels [3]: 68.2% | % a.i. Analyzed in "Traditional" Coats Leachate [3]: < 0.5% | % a.i. Analyzed in "Traditional" Coats Sand [3]: 22.9% | % a.i. Analyzed in Association Polymer Kernels [3]: 30.1% | % a.i. Analyzed in Association Polymer Leachate [3]: 34.9% | % a.i. Analyzed in Association Polymer Sand [3]: 39.7%

CNC(=O)Oc1cccc2c1OC(C)(C)C2 [carbofuran]
Solubility of Carbofuran, ppm ([4]; 1000 ppm Alipal EP110): 349 ppm | Solubility of Carbofuran, ppm ([4]; 1000 ppm Ethomeen T/15): 436 ppm | Solubility of Carbofuran, ppm ([4]; 1000 ppm Pluronic F68): 287 ppm | Solubility of Carbofuran, ppm ([4]; 1000 ppm Triton N101): 370 ppm | increase in solubility in surfactant solution over that in water ([4]; Ethomeen T/15, 1000 ppm): 30% | Solubility of Carbofuran, ppm ([4]; H₂O): 330 ppm | increase in solubility in surfactant solution over that in water ([4]; Triton (N101), 1000 ppm): 10%

CCOP(=S)(OCC)SCSC(C)(C)C [terbufos]
Terbufos Concentration (ppm), Time Release from Coated Seeds ([5]; Association Polymer (no PVAc), Buffer pH = 5.6, 0.5 hour): 370 ppm | Terbufos Concentration (ppm), Time Release from Coated Seeds ([5]; Association Polymer (no PVAc), Buffer pH = 5.6, 2 hours): 350 ppm | Terbufos Concentration (ppm), Time Release from Coated Seeds ([5]; Association Polymer (no PVAc), Buffer pH = 5.6, 4 hours): 360 ppm | Terbufos Concentration (ppm), Time Release from Coated Seeds ([5]; Association Polymer+PVAc, Buffer pH 5.6, 0.5 hour): 130 ppm | Terbufos Concentration (ppm), Time Release from Coated Seeds ([5]; Association Polymer+PVAc, Buffer pH 5.6, 2 hours): 147 ppm | Terbufos Concentration (ppm), Time Release from Coated Seeds ([5]; Association Polymer+PVAc, Buffer pH 5.6, 4 hours): 210 ppm | Terbufos Concentration (ppm), Time Release from Coated Seeds ([5]; Association Polymer+PVAc, Buffer pH 5.6, 26 hours): 163 ppm | Terbufos Concentration (ppm), Time Release from Coated Seeds ([5]; Association Polymer+PVAc, Buffer pH 5.6, 69.5 hours): 122 ppm | Terbufos Concentration (ppm), Time Release from Coated Seeds ([5]; Association Polymer+PVAc, Buffer pH 8.3, 0.5 hour): 210 ppm | Terbufos Concentration (ppm), Time Release from Coated Seeds ([5]; Association Polymer+PVAc, Buffer pH 8.3, 2 hours): 240 ppm | Terbufos Concentration (ppm), Time Release from Coated Seeds ([5]; Association Polymer+PVAc, Buffer pH 8.3, 4 hours): 260 ppm | Terbufos Concentration (ppm), Time Release from Coated Seeds ([5]; Association Polymer+PVAc, Buffer pH=3.3, 2 hours): 22 ppm | Terbufos Concentration (ppm), Time Release from Coated Seeds ([5]; Association Polymer+PVAc, Buffer pH=3.3, 4 hours): 7.6 ppm | Terbufos Concentration (ppm), Time Release from Coated Seeds ([5]; PVAc, Buffer pH=5.6, 4 hours): 1.9 ppm | Terbufos Concentration (ppm), Time Release from Coated Seeds ([5]; PVAc, Buffer pH=5.6, 26 hours): 2.4 ppm | Terbufos Concentration (ppm) ([6]; Buffer = 10 ml (Triton = 1000 ppm), 0.5 hours): 61 ppm | Terbufos Concentration (ppm) ([6]; Buffer = 10 ml (Triton = 1000 ppm), 1 hour): 86 ppm | Terbufos Concentration (ppm) ([6]; Buffer = 10 ml (Triton = 1000 ppm), 2 hours): 104 ppm | Terbufos Concentration (ppm) ([6]; Buffer = 10 ml (Triton = 1000 ppm), 3 hours): 81 ppm | Terbufos Concentration (ppm) ([6]; Buffer = 10 ml (Triton = 1000 ppm), 4 hours): 60 ppm | Terbufos Concentration (ppm) ([6]; Buffer = 10 ml (Triton = 1000 ppm), 5 hours): 60 ppm | Terbufos Concentration (ppm) ([6]; Buffer = 20 ml (Triton = 500 ppm), 0.5 hours): 53 ppm | Terbufos Concentration (ppm) ([6]; Buffer = 20 ml (Triton = 500 ppm), 1 hour): 39 ppm | Terbufos Concentration (ppm) ([6]; Buffer = 20 ml (Triton = 500 ppm), 3 hours): 34 ppm | Terbufos Concentration (ppm) ([6]; Buffer = 20 ml (Triton = 500 ppm), 4 hours): 44 ppm | Terbufos Concentration (ppm) ([6]; Buffer = 20 ml (Triton = 500 ppm), 5 hours): 51 ppm | Terbufos Concentration (ppm) ([6]; Buffer = 20 ml (Triton = 500 ppm), 22 hours): 29 ppm | Terbufos Concentration (ppm) ([6]; Buffer = 100 ml (Triton = 100 ppm), 0.25 hours): 2.7 ppm | Terbufos Concentration (ppm) ([6]; Buffer = 100 ml (Triton = 100 ppm), 0.5 hours): 3.2 ppm | Terbufos Concentration (ppm) ([6]; Buffer = 100 ml (Triton = 100 ppm), 1 hour): 3.3 ppm | Terbufos Concentration (ppm) ([6]; Buffer = 100 ml (Triton = 100 ppm), 1.5 hours): 4.3 ppm | Terbufos Concentration (ppm) ([6]; Buffer = 100 ml (Triton = 100 ppm), 2 hours): 4.7 ppm | Terbufos Concentration (ppm) ([6]; Buffer = 100 ml (Triton = 100 ppm), 3 hours): 4.6 ppm | Terbufos Concentration (ppm) ([6]; Buffer = 100 ml (Triton = 100 ppm), 4 hours): 5.9 ppm | Terbufos Concentration (ppm) ([6]; Buffer = 100 ml (Triton = 100 ppm), 5 hours): 5.5 ppm | Terbufos Concentration (ppm) ([6]; Buffer = 100 ml (Triton = 100 ppm), 6 hours): 5.1 ppm | Terbufos Concentration (ppm) ([6]; Buffer = 100 ml (Triton = 100 ppm), 7 hours): 6.7 ppm | Terbufos Concentration (ppm) ([6]; Buffer = 100 ml (Triton = 100 ppm), 28 hours): 7.5 ppm | solubility in neat surfactants (no water present) or polyethylene glycols, judged by eye ([7]; 5 µl terbufos in 200 µl of Cl, C2, C4, C7, Al, N1, N4, N5, N6, N8, N12, N24, N25, N26, PEG 200 or PEG 400): Soluble | solubility in neat surfactants (no water present), judged by eye ([7]; 5 µl terbufos in 200 µl of anionic A2, A3, A5 or A6): Insoluble | terbufos concentration ([8]; 575 ppm surfactant a) (N3, Triton N101)): 64 ppm | terbufos concentration ([8]; 603 ppm surfactant portion b) (half of 1206 ppm 1:1 association polymer PA 5000:N3)): 52 ppm | Ratings for corn rootworm damage (corn rootworms; Granule, 0.1 g m⁻¹): 2.2 | Ratings for corn rootworm damage (corn rootworms; seed treatment Association Polymer, 10 g/kg): 2.6 | Ratings for corn rootworm damage (corn rootworms; seed treatment PVAc/PVAl, 10 g/kg): 3.1 | Ratings for corn rootworm damage (corn rootworms; seed treatment PVAc/PVAl, 30 g/kg): 2.8 | Terbufos Concentration (ppm) Individual Surfactant ([9]; A2, 1000 ppm): 2.0 ppm | Terbufos Concentration (ppm) Combination Surfactant With C2 ([9]; A2 with C2, 5 ml portions (1000 ppm) of each, maximum 100 ppm): 38 ppm | Terbufos Concentration (ppm) Combination Surfactant With N3 ([9]; A2 with N3, 5 ml portions (1000 ppm) of each, maximum 100 ppm): 13 ppm | Terbufos Concentration (ppm) Individual Surfactant ([9]; A4, 1000 ppm): 3.4 ppm | Terbufos Concentration (ppm) Combination Surfactant With N3 ([9]; A4 with N3, 5 ml portions (1000 ppm) of each, maximum 100 ppm): 28 ppm | Terbufos Concentration (ppm) Individual Surfactant ([9]; C2, 1000 ppm): 12 ppm | Terbufos Concentration (ppm) Combination Surfactant ([9]; C2 with N3, 5 ml portions (1000 ppm) of each, maximum 100 ppm): 64 ppm | Terbufos Concentration (ppm) Individual Surfactant ([9]; N3, 1000 ppm): 65 ppm | Terbufos Concentration (ppm) Individual Surfactant ([9]; N7, 1000 ppm): 1.1 ppm | Terbufos Concentration (ppm) Combination Surfactant With C2 ([9]; N7 with C2, 5 ml portions (1000 ppm) of each, maximum 100 ppm): 6.7 ppm | Terbufos Concentration (ppm) Combination Surfactant With N3 ([9]; N7 with N3, 5 ml portions (1000 ppm) of each, maximum 100 ppm): 54 ppm | Terbufos Concentration (ppm) Individual Surfactant ([9]; N8, 1000 ppm): 1.2 ppm | Terbufos Concentration (ppm) Combination Surfactant With C2 ([9]; N8 with C2, 5 ml portions (1000 ppm) of each, maximum 100 ppm): 39 ppm | Terbufos Concentration (ppm) Combination Surfactant With N3 ([9]; N8 with N3, 5 ml portions (1000 ppm) of each, maximum 100 ppm): 40 ppm | Terbufos Concentration (ppm) Individual Surfactant ([9]; N10, 1000 ppm): 0.7 ppm | Terbufos Concentration (ppm) Combination Surfactant With C2 ([9]; N10 with C2, 5 ml portions (1000 ppm) of each, maximum 100 ppm): 36 ppm | Terbufos Concentration (ppm) Combination Surfactant With N3 ([9]; N10 with N3, 5 ml portions (1000 ppm) of each, maximum 100 ppm): 38 ppm | Terbufos Concentration (ppm) Individual Surfactant ([9]; N11, 1000 ppm): 0.5 ppm | Terbufos Concentration (ppm) Combination Surfactant With C2 ([9]; N11 with C2, 5 ml portions (1000 ppm) of each, maximum 100 ppm): 9.5 ppm | Terbufos Concentration (ppm) Combination Surfactant With N3 ([9]; N11 with N3, 5 ml portions (1000 ppm) of each, maximum 100 ppm): 24 ppm

From patent EP0302824A2 (priority 1987, dated 1989)
